Laboratory results as given in patent US6355799B1, “Substituted benzene compounds, process for their preparation, and herbicidal and defoliant compositions containing them” (ISK Americas Incorporated, priority 1997, dated 2002).

What was measured:
Assay type in all cases: in vivo
[1] = tested on: large crabgrass (Digitaria sanguinalis, DIGSA); assay: Post-emerge test, greenhouse herbicide activity screening; conditions: post-emerge, 14 days after application, rating scale 0-100
Method in brief: (§1)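 Compounds in acetone were track-sprayed at 187 l/ha, 15–1000 g ai/ha, onto sandy loam pots. Pre-emerge seeds were sown one day before spraying, with surface watering afterwards. Post-emerge plants were at the 2–3 leaf stage and sprayed with 0.25% v/v non-ionic surfactant. Injury was rated 0–100 at 14 days.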

[2] = tested on: lambsquarters (Chenopodium album, CHEAL); assay: as above; conditions: post-emerge, 14 days after application, rating scale 0-100
Method in brief: as §1

[3] = tested on: sicklepod (Cassia obtusifolia, CASOB); assay: as above; conditions: post-emerge, 14 days after application, rating scale 0-100
Method in brief: as §1

[4] = tested on: barnyardgrass (Echinochloa crus-galli, ECHCG); assay: as above; conditions: post-emerge, 14 days after application, rating scale 0-100
Method in brief: as §1

[5] = tested on: velvetleaf (Abutilon theophrasti, ABUTH); assay: as above; conditions: post-emerge, 14 days after application, rating scale 0-100
Method in brief: as §1

[6] = tested on: green foxtail (Setaria viridis, SETVI); assay: as above; conditions: post-emerge, 14 days after application, rating scale 0-100
Method in brief: as §1

[7] = tested on: johnsongrass (Sorghum halepense, SORHA); assay: as above; conditions: post-emerge, 14 days after application, rating scale 0-100
Method in brief: as §1

[8] = tested on: ivyleaf morningglory (Ipomoea hederacea, IPOHE); assay: as above; conditions: post-emerge, 14 days after application, rating scale 0-100
Method in brief: as §1

[9] = tested on: redroot pigweed (Amaranthus retroflexus, AMARE); assay: as above; conditions: post-emerge, 14 days after application, rating scale 0-100
Method in brief: as §1

[10] = tested on: large crabgrass (Digitaria sanguinalis, DIGSA); assay: Pre-emerge test, greenhouse herbicide activity screening; conditions: rated 14 days after application, 0 = no damage, 100 = complete death
Method in brief: (§2)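 Applied at 15–1000 g ai/ha from acetone in 187 l/ha spray volume. Post-emergence applications included 0.25% v/v non-ionic surfactant and reached plants sown 8–21 days before. Pre-emergence applications were incorporated by surface watering. Efficacy or crop damage was rated on a 0–100 scale after 14 days.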

[11] = tested on: lambsquarters (Chenopodium album, CHEAL); assay: as above; conditions: rated 14 days after application, 0 = no damage, 100 = complete death
Method in brief: as §2

[12] = tested on: sicklepod (Cassia obtusifolia, CASOB); assay: as above; conditions: rated 14 days after application, 0 = no damage, 100 = complete death
Method in brief: as §2

[13] = tested on: barnyardgrass (Echinochloa crus-galli, ECHCG); assay: as above; conditions: rated 14 days after application, 0 = no damage, 100 = complete death
Method in brief: as §2

[14] = tested on: velvetleaf (Abutilon theophrasti, ABUTH); assay: as above; conditions: rated 14 days after application, 0 = no damage, 100 = complete death
Method in brief: as §2

[15] = tested on: green foxtail (Setaria viridis, SETVI); assay: as above; conditions: rated 14 days after application, 0 = no damage, 100 = complete death
Method in brief: as §2

[16] = tested on: johnsongrass (Sorghum halepense, SORHA); assay: as above; conditions: rated 14 days after application, 0 = no damage, 100 = complete death
Method in brief: as §2

[17] = tested on: ivyleaf morningglory (Ipomoea hederacea, IPOHE); assay: as above; conditions: rated 14 days after application, 0 = no damage, 100 = complete death
Method in brief: as §2

[18] = tested on: field corn (Zea mays L., var. Dekalb 535, CORN); assay: Post-emerge test, crop safety; conditions: post-emerge, 14 days after application, rating scale 0-100
Method in brief: as §2

[19] = tested on: upland rice (Oryza sp., var. Tebonnet, RICE); assay: Post-emerge test, crop safety; conditions: post-emerge, 14 days after application, rating scale 0-100
Method in brief: as §2

[20] = tested on: redroot pigweed (Amaranthus retroflexus, AMARE); assay: Pre-emerge test, greenhouse herbicide activity screening; conditions: rated 14 days after application, 0 = no damage, 100 = complete death
Method in brief: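 Sandy loam pots; pre-emerge: sown 1 d pre-spray, surface-watered after, then bottom-watered. Post-emerge: sown 8–21 d before, 2–3 leaf stage, + 0.25% v/v NIS, bottom-watered. Acetone, 187 l/ha track spray, 15–1000 g ai/ha. 0–100 injury score, day 14.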

[21] = tested on: field corn (Zea mays L., var. Dekalb 535, CORN); assay: Pre-emerge test, crop safety; conditions: rated 14 days after application, 0 = no damage, 100 = complete death
Method in brief: (§3)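 Herbicidal damage is scored 0 (none) to 100 (complete plant death) two weeks after a simulated field spray. Rates span 15–1000 g ai/ha, delivered in acetone at 187 l/ha. For post-emergence treatments, plants have 2–3 leaves and the spray carries 0.25% v/v non-ionic surfactant.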

[22] = tested on: upland rice (Oryza sp., var. Tebonnet, RICE); assay: Pre-emerge test, crop safety; conditions: rated 14 days after application, 0 = no damage, 100 = complete death
Method in brief: as §3

COc1c(Cl)cc(F)c(-n2c(=O)cc(C(F)(F)F)n(C)c2=O)c1NC(=O)COc1ccccc1 [2-119]
80: phytotoxicity rating DIGSA ([1]; 250 g ai/ha) | phytotoxicity rating CHEAL ([2]; 63 g ai/ha)
70: Pre-emerge Herbicidal Activity, phytotoxicity rating (0-100), DIGSA ([10]; 63 g ai/ha) | Pre-emerge Herbicidal Activity, phytotoxicity rating (0-100), ECHCG ([13]; 63 g ai/ha) | Pre-emerge Herbicidal Activity, phytotoxicity rating (0-100), IPOHE ([17]; 63 g ai/ha) | phytotoxicity rating CORN ([18]; 63 g ai/ha) | Pre-emerge phytotoxicity rating (0-100), crop damage, RICE ([22]; 63 g ai/ha)
20: Pre-emerge phytotoxicity rating (0-100), crop damage, CORN ([21]; 63 g ai/ha)
75: Pre-emerge Herbicidal Activity, phytotoxicity rating (0-100), SORHA ([16]; 63 g ai/ha)
90: phytotoxicity rating ECHCG ([4]; 250 g ai/ha) | phytotoxicity rating SETVI ([6]; 250 g ai/ha) | phytotoxicity rating SORHA ([7]; 250 g ai/ha) | phytotoxicity rating AMARE ([9]; 63 g ai/ha) | Pre-emerge Herbicidal Activity, phytotoxicity rating (0-100), CASOB ([12]; 250 g ai/ha) | phytotoxicity rating CORN ([18]; 250 g ai/ha) | phytotoxicity rating RICE ([19]; 250 g ai/ha) | Pre-emerge phytotoxicity rating (0-100), crop damage, CORN ([21]; 250 g ai/ha)
60: phytotoxicity rating CASOB ([3]; 250 g ai/ha) | phytotoxicity rating SORHA ([7]; 63 g ai/ha) | Pre-emerge Herbicidal Activity, phytotoxicity rating (0-100), CASOB ([12]; 63 g ai/ha) | phytotoxicity rating RICE ([19]; 63 g ai/ha)
40: phytotoxicity rating ECHCG ([4]; 63 g ai/ha) | phytotoxicity rating SETVI ([6]; 63 g ai/ha)
100: phytotoxicity rating CHEAL ([2]; 250 g ai/ha) | phytotoxicity rating ABUTH ([5]; 63 g ai/ha) | phytotoxicity rating ABUTH ([5]; 250 g ai/ha) | phytotoxicity rating IPOHE ([8]; 63 g ai/ha) | phytotoxicity rating IPOHE ([8]; 250 g ai/ha) | phytotoxicity rating AMARE ([9]; 250 g ai/ha) | Pre-emerge Herbicidal Activity, phytotoxicity rating (0-100), DIGSA ([10]; 250 g ai/ha) | Pre-emerge Herbicidal Activity, phytotoxicity rating (0-100), CHEAL ([11]; 63 g ai/ha) | Pre-emerge Herbicidal Activity, phytotoxicity rating (0-100), CHEAL ([11]; 250 g ai/ha) | Pre-emerge Herbicidal Activity, phytotoxicity rating (0-100), ABUTH ([14]; 63 g ai/ha) | Pre-emerge Herbicidal Activity, phytotoxicity rating (0-100), ABUTH ([14]; 250 g ai/ha) | Pre-emerge Herbicidal Activity, phytotoxicity rating (0-100), SETVI ([15]; 63 g ai/ha) | Pre-emerge Herbicidal Activity, phytotoxicity rating (0-100), SETVI ([15]; 250 g ai/ha) | Pre-emerge Herbicidal Activity, phytotoxicity rating (0-100), SORHA ([16]; 250 g ai/ha) | Pre-emerge Herbicidal Activity, phytotoxicity rating (0-100), IPOHE ([17]; 250 g ai/ha) | Pre-emerge Herbicidal Activity, phytotoxicity rating (0-100), AMARE ([20]; 63 g ai/ha) | Pre-emerge Herbicidal Activity, phytotoxicity rating (0-100), AMARE ([20]; 250 g ai/ha) | Pre-emerge phytotoxicity rating (0-100), crop damage, RICE ([22]; 250 g ai/ha)
95: Pre-emerge Herbicidal Activity, phytotoxicity rating (0-100), ECHCG ([13]; 250 g ai/ha)
30: phytotoxicity rating DIGSA ([1]; 63 g ai/ha) | phytotoxicity rating CASOB ([3]; 63 g ai/ha)
